Experimental findings from ChEMBL document CHEMBL1138948, “Design, synthesis, and evaluation of proline and pyrrolidine based melanocortin receptor agonists. A conformationally restricted dipeptide mimic approach” (J Med Chem, 2006) are described below.

Series [1] deals with T1, Melanocortin receptor 4 (Homo sapiens, UniProt P32245). The experiment in a line: Agonist activity at human MC4R transfected in HEK293 cells. Format: functional, cell-based.
The target of series [2] is T2, Melanocortin receptor 3 (Homo sapiens, UniProt P41968). The series is described as follows: Displacement of europium labeled NDP-alpha-MSH from human MC3R expressed in HEK293 cells. In kind it is cell-based.
In series [3] the target is T1, Melanocortin receptor 4. The series is described as follows: Displacement of europium labeled NDP-alpha-MSH from human MC4R expressed in HEK293 cells. Format: cell-based.
Series [4] in a line: Exsorptive permeability across Caco-2 cell membrane. Format: ADME, cell-based. The settings on record: human, read-out: permeability (converted). In general terms: Passage across Caco-2 layers is used to estimate intestinal permeability.
The nature of series [5]: Absorptive permeability across Caco-2 cell membrane. Format: ADME, cell-based. The following applies: human, read-out: permeability (converted).
Series [6] has as its target T3, Melanocyte-stimulating hormone receptor (Homo sapiens, UniProt Q01726). The series is described as follows: Displacement of europium labeled NDP-alpha-MSH from human MC1R expressed in HEK293 cells. Format: cell-based.
Series [7] has as its target T2, Melanocortin receptor 3. The experiment in a line: Agonist activity at human MC3R transfected in HEK293 cells. Format: functional, cell-based.
Series [8] addresses T3, Melanocyte-stimulating hormone receptor. The experiment in a line: Agonist activity at human MC1R transfected in HEK293 cells. Format: functional, cell-based.
In series [9] the target is Melanocortin receptor (M1 and M4) (Homo sapiens) (UniProt P32245+Q01726). The experiment in a line: Selectivity for human MC4R over human MC1R. In kind it is protein assay.

In general, EC50 refers to the midpoint of the concentration-response curve. A higher EC50 goes with a less potent agent. By Ki is commonly meant a dissociation constant, usually derived from enzyme kinetics or from competition with a known ligand.

T3 sequence (Q01726 whole entry): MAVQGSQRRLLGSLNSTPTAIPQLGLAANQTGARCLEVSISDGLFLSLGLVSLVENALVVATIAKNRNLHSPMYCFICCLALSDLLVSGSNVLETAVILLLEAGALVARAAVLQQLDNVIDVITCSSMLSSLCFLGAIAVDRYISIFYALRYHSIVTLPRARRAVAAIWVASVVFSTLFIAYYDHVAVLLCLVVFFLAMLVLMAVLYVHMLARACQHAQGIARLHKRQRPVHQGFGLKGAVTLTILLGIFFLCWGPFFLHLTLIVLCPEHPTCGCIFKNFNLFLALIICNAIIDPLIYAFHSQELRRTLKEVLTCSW
T2 sequence (P41968 whole entry): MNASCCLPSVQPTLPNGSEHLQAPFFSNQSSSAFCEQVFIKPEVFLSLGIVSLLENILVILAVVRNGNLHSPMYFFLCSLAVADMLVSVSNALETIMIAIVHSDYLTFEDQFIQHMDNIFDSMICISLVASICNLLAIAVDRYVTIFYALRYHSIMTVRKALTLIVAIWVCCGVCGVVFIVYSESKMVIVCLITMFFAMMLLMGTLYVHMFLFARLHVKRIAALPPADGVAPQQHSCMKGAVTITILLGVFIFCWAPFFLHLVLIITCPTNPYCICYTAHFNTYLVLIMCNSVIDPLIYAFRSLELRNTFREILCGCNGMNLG
T1 sequence (P32245 whole entry): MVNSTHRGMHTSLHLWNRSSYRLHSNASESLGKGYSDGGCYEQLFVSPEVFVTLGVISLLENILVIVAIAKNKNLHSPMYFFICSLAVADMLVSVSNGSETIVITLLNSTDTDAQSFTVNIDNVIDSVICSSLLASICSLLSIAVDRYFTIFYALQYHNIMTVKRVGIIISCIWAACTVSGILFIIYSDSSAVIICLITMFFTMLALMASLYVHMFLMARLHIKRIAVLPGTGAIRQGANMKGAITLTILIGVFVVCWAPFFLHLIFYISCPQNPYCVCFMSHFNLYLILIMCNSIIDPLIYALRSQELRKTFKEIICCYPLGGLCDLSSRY

Regarding `CC(=O)N[C@@H](Cc1cnc[nH]1)C(=O)N[C@H](Cc1ccccc1)C(=O)N1C[C@H](OCc2ccc3ccccc3c2)C[C@@H]1C(=O)NCCN=C(N)N`, the EC50 on Melanocortin receptor 4 [1] stood at 152 nM; on Melanocortin receptor 3 [7], 340 nM; in [8], 3 nM. The figures for the Ki (on Melanocortin receptor 3 [2]; on Melanocortin receptor 4 [3]; in [6]) were 824 nM, 1580 nM and 13 nM, respectively. Besides, the Papp in series [4] is 0.5 ×10⁻⁶ cm/s. Besides, the Papp A→B in series [5] is 1 ×10⁻⁶ cm/s.

`CC(=O)N[C@@H](Cc1c[nH]cn1)C(=O)N[C@H](Cc1ccccc1)C(=O)N1C[C@@H](OCc2ccc3ccccc3c2)C[C@H]1CCCN=C(N)N`: the EC50 on Melanocortin receptor 4 [1] turned out to be 9 nM; on Melanocortin receptor 3 [7] it was 1130 nM; in series [8] it was 1220 nM. In addition, the Ki turned out to be 1960 nM at Melanocortin receptor 3 [2], 14 nM at Melanocortin receptor 4 [3] and 2970 nM in series [6]. The Selectivity ratio in series [9] is more than 150.

As to `OC[C@@H](O)[C@@H](O)[C@H](O)[C@H](O)CO` [MANNITOL], the Papp in [4] is 1.83 ×10⁻⁶ cm/s. Also, in series [5], the Papp A→B is 2.17 ×10⁻⁶ cm/s.

Regarding `N=C(N)NCCNC(=O)[C@H]1C[C@@H](OCc2ccc3ccccc3c2)CN1C(=O)[C@@H](Cc1ccccc1)NC(=O)[C@@H]1Cc2ccccc2CN1`, the EC50 at Melanocortin receptor 4 [1] is 97 nM; at Melanocortin receptor 3 [7] it was 825 nM; in series [8] it was 539 nM. The Ki was determined as 4390 nM on Melanocortin receptor 3 [2], 411 nM at Melanocortin receptor 4 [3] and 1620 nM in series [6]. Moreover, in series [9], the Selectivity ratio came to 4.

As for `CC(=O)N[C@@H](Cc1ccc(O)cc1)C(=O)N[C@H](Cc1ccccc1)C(=O)N1C[C@H](OCc2ccc3ccccc3c2)C[C@@H]1C(=O)NCCN=C(N)N`, the EC50 is 254 nM at Melanocortin receptor 4 [1], 1220 nM at Melanocortin receptor 3 [7] and 1340 nM in series [8]. In addition, the values for the Ki (at Melanocortin receptor 3 [2]; on Melanocortin receptor 4 [3]; in series [6]) were 501 nM, 559 nM and 2050 nM, respectively. Also, in series [9], the Selectivity ratio worked out at 4.

For the molecule `NC(=O)C[C@H](N)C(=O)N[C@H](Cc1ccccc1)C(=O)N1C[C@@H](OCc2ccc3ccccc3c2)C[C@@H]1CCCN=C(N)N`, the EC50 worked out at 8 nM on Melanocortin receptor 4 [1], 10 nM on Melanocortin receptor 3 [7] and 4.3 nM in [8]. Also, the Ki at Melanocortin receptor 3 [2] is 835 nM; on Melanocortin receptor 4 [3], 187 nM; in series [6], 103 nM.

Consider `N=C(N)NCCNC(=O)[C@H]1C[C@@H](OCc2ccc3ccccc3c2)CN1C(=O)[C@@H](Cc1ccccc1)NC(=O)[C@@H]1CCCCN1`, for which the EC50 is 292 nM on Melanocortin receptor 4 [1], 1770 nM on Melanocortin receptor 3 [7] and 390 nM in series [8]. The Ki turned out to be 3850 nM at Melanocortin receptor 3 [2], 1380 nM on Melanocortin receptor 4 [3] and 631 nM in series [6].

With `CC(=O)N[C@@H](Cc1ccc(O)cc1)C(=O)N[C@H](Cc1ccccc1)C(=O)N1C[C@@H](OCc2ccc3ccccc3c2)C[C@H]1CCCN=C(N)N`, the EC50 worked out at 252 nM on Melanocortin receptor 4 [1], 1170 nM on Melanocortin receptor 3 [7] and 1810 nM in [8]. In addition, the Ki on Melanocortin receptor 3 [2] was 2880 nM; on Melanocortin receptor 4 [3], 492 nM; in series [6], 2450 nM.

For `CC(=O)N[C@@H](Cc1c[nH]cn1)C(=O)N[C@H](Cc1ccccc1)C(=O)N1C[C@H](OCc2ccc3ccccc3c2)C[C@H]1CCCN=C(N)N`, the values for the EC50 (on Melanocortin receptor 4 [1]; at Melanocortin receptor 3 [7]; in series [8]) were 986 nM, 3720 nM and 8 nM, respectively. The figures for the Ki (on Melanocortin receptor 3 [2]; at Melanocortin receptor 4 [3]; in [6]) were 7230 nM, 2880 nM and 4.7 nM, respectively.

Consider `CC(=O)N[C@@H](Cc1ccc(O)cc1)C(=O)N[C@H](Cc1ccccc1)C(=O)N1C[C@H](OCc2ccc3ccccc3c2)C[C@@H]1CCCN=C(N)N`, for which the EC50 on Melanocortin receptor 4 [1] worked out at 14 nM; on Melanocortin receptor 3 [7], 85 nM; in [8], 88 nM. Moreover, the Ki is 42 nM at Melanocortin receptor 3 [2], 21 nM at Melanocortin receptor 4 [3] and 85 nM in [6]. The Selectivity ratio in series [9] was determined as 4.

As to `CC(=O)N[C@@H](Cc1ccc(O)cc1)C(=O)N[C@H](Cc1ccccc1)C(=O)N1C[C@@H](OCc2ccc3ccccc3c2)C[C@@H]1CCCN=C(N)N`, the EC50 on Melanocortin receptor 4 [1] amounted to 39 nM; on Melanocortin receptor 3 [7], 68 nM; in series [8] it was 71 nM. The results for the Ki (at Melanocortin receptor 3 [2]; on Melanocortin receptor 4 [3]; in series [6]) were 425 nM, 248 nM and 138 nM, respectively.

With `CC(=O)N[C@@H](CCC(N)=O)C(=O)N[C@H](Cc1ccccc1)C(=O)N1C[C@H](OCc2ccc3ccccc3c2)C[C@@H]1C(=O)NCCN=C(N)N`, the EC50 on Melanocortin receptor 4 [1] was 184 nM; at Melanocortin receptor 3 [7] it was 563 nM; in series [8], 328 nM. For the same molecule, the Ki at Melanocortin receptor 3 [2] was 1490 nM; at Melanocortin receptor 4 [3], 632 nM; in series [6] it was 893 nM.

Consider `NC(N)=NCCC[C@H]1C[C@@H](OCc2ccc3ccccc3c2)CN1C(=O)[C@@H](Cc1ccccc1)NC(=O)CCc1ccccc1`, for which the values for the EC50 (at Melanocortin receptor 4 [1]; on Melanocortin receptor 3 [7]; in series [8]) were 266 nM, 2050 nM and 585 nM, respectively. The results for the Ki (at Melanocortin receptor 3 [2]; on Melanocortin receptor 4 [3]; in series [6]) were 403 nM, 137 nM and 611 nM, respectively.

On to `N=C(N)NCCC[C@H]1C[C@@H](OCc2ccc3ccccc3c2)CN1C(=O)[C@@H](Cc1ccccc1)NC(=O)[C@@H]1Cc2ccccc2CN1`, for which the EC50 at Melanocortin receptor 4 [1] amounted to 10 nM; at Melanocortin receptor 3 [7] it was 232 nM; in series [8] it was 98 nM. The values for the Ki (on Melanocortin receptor 3 [2]; at Melanocortin receptor 4 [3]; in series [6]) were 86 nM, 10 nM and 42 nM, respectively.

In the case of `CC(=O)N[C@H](Cc1ccccc1)C(=O)N1C[C@H](OCc2ccc3ccccc3c2)C[C@@H]1CCCN=C(N)N`, the EC50 stood at 317 nM at Melanocortin receptor 4 [1], 1380 nM at Melanocortin receptor 3 [7] and 232 nM in [8]. Besides, the Ki at Melanocortin receptor 3 [2] was found to be 289 nM; on Melanocortin receptor 4 [3], 90 nM; in [6], 463 nM. In addition, in [4], the Papp is 6.17 ×10⁻⁶ cm/s. In [5], the Papp A→B is 7.5 ×10⁻⁶ cm/s.

Take `CNC(=O)[C@H](Cc1ccc2ccccc2c1)NC(=O)[C@H](CCCN=C(N)N)NC(=O)[C@@H](Cc1ccccc1)NC(=O)[C@H](Cc1c[nH]cn1)NC(C)=O`: the figures for the EC50 (at Melanocortin receptor 4 [1]; on Melanocortin receptor 3 [7]; in series [8]) were 5.7 nM, 541 nM and 14 nM, respectively. The Ki on Melanocortin receptor 3 [2] turned out to be 1200 nM; on Melanocortin receptor 4 [3], 29 nM; in series [6], 13 nM.
